In patent US10376520B2, “Methods for the treatment of cardiovascular disorders” (Galapagos NV, priority 2015, dated 2019):

Tested on: RA patients
Experiment: Atherogenic index, Study 1 (RA patients, add-on to MTX)
Format: in vivo, human
Details: for Atherogenic index Mean CFB - 24 weeks results / Atherogenic index Mean percentage CFB - 24 weeks results / Atherogenic index Median CFB - 24 weeks results: 200 mg q.d. continued over 24 weeks
Procedure: As used herein, the term ‘atherogenic index’ refers to
Double-blind, placebo-controlled add on study in subjects with moderately to severely active RA who have an inadequate response to methotrexate (MTX) (oral or parenteral).
Compound 1 (dosed as a [Compound 1:HCl:3H2O]) is dosed for twelve weeks once daily (q.d.) (50 mg, 100 mg or 200 mg) or twice daily (b.i.d.) (25 mg, 50 mg or 100 mg); or placebo.
At Week 12, the subjects on placebo who have not achieved 20% improvement in swollen joint count (SJC66) and tender joint count (TJC68) are re-randomized automatically to receive Compound 1 (dosed as a [Compound 1:HCl:3H2O]) either at 100 mg q.d. or 50 mg b.i.d. doses in a blinded fashion; subjects on 50 mg q.d. who have not achieved 20% improvement in SJC66 and TJC68 will be assigned to 100 mg q.d. and subjects on 25 mg b.i.d. that have not achieved a 20% improvement in SJC66 and TJC68 will be assigned to 50 mg b.i.d. Subjects who switch treatment at week 12 are handled as if they discontinued at week 12 for the purpose of statistical analysis, whereas subjects in the other groups will maintain their randomized treatment until Week 24.
The atherogenic index has been identified to be a good predictor of cardiovascular disorders risks and is calculated as follows: […]

[1] = 2 × 25 mg (b.i.d. group), week 1
[2] = 2 × 25 mg (b.i.d. group), week 2
[3] = 2 × 25 mg (b.i.d. group), week 4
[4] = 2 × 25 mg (b.i.d. group), week 8
[5] = 2 × 25 mg (b.i.d. group), week 12
[6] = 2 × 50 mg (b.i.d. group), week 1
[7] = 2 × 50 mg (b.i.d. group), week 2
[8] = 2 × 50 mg (b.i.d. group), week 4
[9] = 2 × 50 mg (b.i.d. group), week 8
[10] = 2 × 50 mg (b.i.d. group), week 12
[11] = 2 × 100 mg (b.i.d. group), week 1

SMILES: O=C(Nc1nc2cccc(-c3ccc(CN4CCS(=O)(=O)CC4)cc3)n2n1)C1CC1 [Compound 1, cyclopropanecarboxylic acid {5-[4-(1,1-dioxo-thiomorpholin-4-ylmethyl)-phenyl]-[1,2,4]triazolo[1,5-a]pyridin-2yl}-amide]
- Atherogenic index Median CFB - 12 weeks results (100 mg q.d., week 12): -0.10 mmol/L
- Atherogenic index Mean CFB - 24 weeks results (week 1): -0.17 mmol/L
- Atherogenic index Mean percentage CFB - 24 weeks results (week 1): −2.63%
- Atherogenic index Median CFB - 24 weeks results (week 1): -0.10 mmol/L
- Atherogenic index Mean CFB - 24 weeks results (week 2): -0.35 mmol/L
- Atherogenic index Mean percentage CFB - 24 weeks results (week 2): −7.45%
- Atherogenic index Median CFB - 24 weeks results (week 2): -0.25 mmol/L
- Atherogenic index Mean CFB - 24 weeks results (week 4): -0.37 mmol/L
- Atherogenic index Mean percentage CFB - 24 weeks results (week 4): −7.97%
- Atherogenic index Median CFB - 24 weeks results (week 4): -0.30 mmol/L
- Atherogenic index Mean CFB - 24 weeks results (week 8): -0.36 mmol/L
- Atherogenic index Mean percentage CFB - 24 weeks results (week 8): −7.92%
- Atherogenic index Median CFB - 24 weeks results (week 8): -0.30 mmol/L
- Atherogenic index Mean CFB - 24 weeks results (week 12): -0.35 mmol/L
- Atherogenic index Mean percentage CFB - 24 weeks results (week 12): −6.85%
- Atherogenic index Median CFB - 24 weeks results (week 12): -0.30 mmol/L
- Atherogenic index Mean CFB - 24 weeks results (week 16): -0.40 mmol/L
- Atherogenic index Mean percentage CFB - 24 weeks results (week 16): −8.14%
- Atherogenic index Median CFB - 24 weeks results (week 16): -0.40 mmol/L
- Atherogenic index Mean CFB - 24 weeks results (week 20): -0.48 mmol/L
- Atherogenic index Mean percentage CFB - 24 weeks results (week 20): −8.84%
- Atherogenic index Median CFB - 24 weeks results (week 20): -0.40 mmol/L
- Atherogenic index Mean CFB - 24 weeks results (week 24): -0.34 mmol/L
- Atherogenic index Mean percentage CFB - 24 weeks results (week 24): −6.14%
- Atherogenic index Median CFB - 24 weeks results (week 24): -0.30 mmol/L
- Atherogenic index Mean CFB (200 mg q.d., week 1): -0.17 mmol/L
- Atherogenic index Mean percentage CFB - 12 weeks results (200 mg q.d., week 1): −3%
- Atherogenic index Median CFB - 12 weeks results (200 mg q.d., week 1): -0.10 mmol/L
- Atherogenic index Mean CFB (200 mg q.d., week 2): -0.35 mmol/L
- Atherogenic index Mean percentage CFB - 12 weeks results (200 mg q.d., week 2): −7%
- Atherogenic index Median CFB - 12 weeks results (200 mg q.d., week 2): -0.25 mmol/L
- Atherogenic index Mean CFB (200 mg q.d., week 4): -0.37 mmol/L
- Atherogenic index Mean percentage CFB - 12 weeks results (200 mg q.d., week 4): −8%
- Atherogenic index Median CFB - 12 weeks results (200 mg q.d., week 4): -0.30 mmol/L
- Atherogenic index Mean CFB (200 mg q.d., week 8): -0.36 mmol/L
- Atherogenic index Mean percentage CFB - 12 weeks results (200 mg q.d., week 8): −8%
- Atherogenic index Median CFB - 12 weeks results (200 mg q.d., week 8): -0.30 mmol/L
- Atherogenic index Mean CFB (200 mg q.d., week 12): -0.35 mmol/L
- Atherogenic index Mean percentage CFB - 12 weeks results (200 mg q.d., week 12): −7%
- Atherogenic index Median CFB - 12 weeks results (200 mg q.d., week 12): -0.30 mmol/L
- Atherogenic index Mean CFB [1]: 0.07 mmol/L
- Atherogenic index Mean percentage CFB - 12 weeks results [1]: 3%
- Atherogenic index Median CFB - 12 weeks results [1]: 0.10 mmol/L
- Atherogenic index Mean CFB [2]: -0.03 mmol/L
- Atherogenic index Mean percentage CFB - 12 weeks results [2]: 0%
- Atherogenic index Median CFB - 12 weeks results [2]: -0.10 mmol/L
- Atherogenic index Mean CFB [3]: -0.04 mmol/L
- Atherogenic index Mean percentage CFB - 12 weeks results [3]: 0%
- Atherogenic index Median CFB - 12 weeks results [3]: 0.00 mmol/L
- Atherogenic index Mean CFB [4]: -0.08 mmol/L
- Atherogenic index Mean percentage CFB - 12 weeks results [4]: −1%
- Atherogenic index Median CFB - 12 weeks results [4]: -0.10 mmol/L
- Atherogenic index Mean CFB [5]: 0.00 mmol/L
- Atherogenic index Mean percentage CFB - 12 weeks results [5]: 2%
- Atherogenic index Median CFB - 12 weeks results [5]: -0.10 mmol/L
- Atherogenic index Mean CFB [6]: -0.06 mmol/L
- Atherogenic index Mean percentage CFB - 12 weeks results [6]: 0%
- Atherogenic index Median CFB - 12 weeks results [6]: 0.00 mmol/L
- Atherogenic index Mean CFB [7]: -0.21 mmol/L
- Atherogenic index Mean percentage CFB - 12 weeks results [7]: −5%
- Atherogenic index Median CFB - 12 weeks results [7]: -0.10 mmol/L
- Atherogenic index Mean CFB [8]: -0.14 mmol/L
- Atherogenic index Mean percentage CFB - 12 weeks results [8]: −3%
- Atherogenic index Median CFB - 12 weeks results [8]: -0.10 mmol/L
- Atherogenic index Mean CFB [9]: -0.18 mmol/L
- Atherogenic index Mean percentage CFB - 12 weeks results [9]: −3%
- Atherogenic index Median CFB - 12 weeks results [9]: -0.10 mmol/L
- Atherogenic index Mean CFB [10]: -0.07 mmol/L
- Atherogenic index Mean percentage CFB - 12 weeks results [10]: −1%
- Atherogenic index Median CFB - 12 weeks results [10]: 0.00 mmol/L
- Atherogenic index Mean CFB [11]: -0.05 mmol/L
- Atherogenic index Mean percentage CFB - 12 weeks results [11]: 0%
- Atherogenic index Median CFB - 12 weeks results [11]: 0.00 mmol/L
- Atherogenic index Mean CFB (2 × 100 mg (b.i.d. group), week 2): -0.19 mmol/L
